Reference: patent US5691373A, “Nonpeptide endothelin antagonists I” (Warner-Lambert Company, priority 1995, dated 1997)

Legend:
human ETB receptor = target: T1, human ETB receptor (Homo sapiens, UniProt P24530); assay: ERBA-B: [125I]-ET-1 binding, recombinant human ETB receptor expressed in CHO-K1 cells; settings: human cloned ETB receptor, read-out: ERBA-B IC50, human cloned receptor data
T1 construct: expressed in transfected cells; host or cells: CHO-K1 cells, pRc-CMW (so in the source) expression vector, electroporation; membranes used
T1 sequence (P24530 27-442): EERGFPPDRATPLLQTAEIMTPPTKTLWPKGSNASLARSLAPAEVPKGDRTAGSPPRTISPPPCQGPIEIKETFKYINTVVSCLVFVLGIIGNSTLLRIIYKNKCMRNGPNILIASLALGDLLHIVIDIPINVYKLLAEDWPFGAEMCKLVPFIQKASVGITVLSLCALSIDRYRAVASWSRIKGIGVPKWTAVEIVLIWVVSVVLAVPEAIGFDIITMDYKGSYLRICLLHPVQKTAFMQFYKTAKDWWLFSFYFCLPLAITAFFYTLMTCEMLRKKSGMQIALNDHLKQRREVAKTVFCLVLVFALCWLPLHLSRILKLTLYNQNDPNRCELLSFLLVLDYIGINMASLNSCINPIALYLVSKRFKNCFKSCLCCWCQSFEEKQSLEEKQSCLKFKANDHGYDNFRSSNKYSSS
Description: Count filters for radioactivity in gamma counter.
The above process has also been modified by using human recombinant CHO-K1 cells.
The tissue used for human ETB was recombinant human ETB receptor expressed in CHO-K1 cells (chinese hamster ovary cells). The gene for human ETB receptor was cloned and inserted into the pRc-CMW expression vector, then transfected into CHO-K1 cells by electroporation. For binding assays, membranes (0.7 mg protein) of CHO-K1 cells expressing recombinant human ETB receptor were used.
^d Human cloned receptor data

ETA = target: T2, ETA (Oryctolagus cuniculus, UniProt A5A8K3); settings: ERBA-A IC50, [125I]-ET-1, rabbit renal artery vascular smooth muscle cells
T2 sequence (A5A8K3 21-427): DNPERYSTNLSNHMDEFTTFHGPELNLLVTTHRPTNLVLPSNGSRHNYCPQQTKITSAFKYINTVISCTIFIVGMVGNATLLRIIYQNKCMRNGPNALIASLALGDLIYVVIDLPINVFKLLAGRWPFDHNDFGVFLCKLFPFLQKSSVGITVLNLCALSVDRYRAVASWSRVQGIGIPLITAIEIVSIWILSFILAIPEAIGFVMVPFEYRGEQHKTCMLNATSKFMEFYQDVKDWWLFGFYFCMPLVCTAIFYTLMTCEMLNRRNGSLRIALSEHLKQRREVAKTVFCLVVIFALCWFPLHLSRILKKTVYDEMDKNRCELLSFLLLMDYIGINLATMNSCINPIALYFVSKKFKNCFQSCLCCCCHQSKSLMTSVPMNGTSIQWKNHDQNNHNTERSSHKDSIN
Description: The cells used were rabbit renal artery vascular smooth muscle cells grown in a 48-well dish (1 cm^2) (confluent cells).
The growth media was Dulbecco's Modified Eagles/Ham's F12 which contained 10% fetal bovine serum and antibiotics (penicillin/streptomycin/fungizone).
Second, remove the assay buffers, place the dish on ice, and add 150 μL of cold assay buffer described above to each well. […] Next, place dish in a 37° C., water bath for about 2 hours and gently agitate the dish every 15 minutes. Discard the radioactive incubation mixture in the sink and wash wells 3 times with 1 mL of cold phosphate buffered saline.

SMILES | IC50 (human ETB receptor) [nM] | IC50 (ETA) [nM]
COc1ccc(C2(O)OC(=O)C(c3ccc4c(c3)OCO4)=C2Cc2cccc(OC)c2OC)cc1 (centres unmarked) [Example 308, 3-Benzo[1,3]dioxol-5-yl-4-(2,3-dimethoxy-benzyl)-5-hydroxy-5-(4-methoxy-phenyl)-5H-furan-2-one] | 2200 | 16
COc1ccc(C2(O)OC(=O)C(c3ccc4c(c3)OCO4)=C2Cc2ccccc2Oc2ccccc2)cc1 (centres unmarked) [Example 313, 3-Benzo[1,3]dioxol-5-yl-5-hydroxy-5-(4-methoxy-phenyl)-4-(2-phenoxy-benzyl) -5H-furan-2-one] | > 2500 | 99
CCC(CC)CC1=C(c2ccc3c(c2)OCO3)C(=O)OC1(O)c1ccc(OC)cc1 (centres unmarked) [Example 315, 3-Benzo[1,3]dioxol-5-yl-4-(2-ethyl-butyl)-5-hydroxy-5-(4-methoxy-phenyl)-5H -furan-2-one] | 11800 | 40
COc1ccc(C2(O)OC(=O)C(c3ccc4c(c3)OCO4)=C2CC(c2ccccc2)C2CCCC2)cc1 (centres unmarked) [Example 319, 3-Benzo[1,3]dioxol-5-yl-4-(2-cyclopentyl-2-phenylethyl)-5-hydroxy-5-(4methoxy-phenyl)-5H-furan-2-one] | 180 | 5.6
COc1ccc(C2(O)OC(=O)C(c3ccc4c(c3)OCO4)=C2Cc2ccccc2Oc2ccc3c(c2)OCO3)cc1 (centres unmarked) [Example 324, 3-Benzo[1,3]dioxol-5-yl-4-[2-(benzo[1,3]dioxol-5-yloxy)-benzyl]-5-hydroxy-5-(4-methoxy-phenyl)-5H-furan-2-one] | 5300 | 8.4
COc1ccc(C2(O)OC(=O)C(c3ccc4c(c3)OCO4)=C2CC2CCCCCC2)cc1 (centres unmarked) [Example 339, 3-Benzo[1,3]dioxol-5-yl-4-cycloheptylmethyl-5-hydroxy-5-(4-methoxy-phenyl)-5H-furan-2-one] | 1300 | 240

More lines, now with the values ahead:

IC50 (human ETB receptor) [nM] | IC50 (ETA) [nM] | SMILES
860 | 18 | COc1ccc(C2(O)OC(=O)C(c3ccc4c(c3)OCO4)=C2Cc2ccc(OCc3ccccc3)c(OC)c2)cc1 (centres unmarked) [Example 309, 3-Benzo[1,3]dioxol-5-yl-4-(4-benzyloxy-3-methoxybenzyl)-5-hydroxy-5-(4-methoxy-phenyl)-5H-furan-2-one]
8800 | 540 | COc1ccc(C2(O)OC(=O)C(c3ccc4c(c3)OCO4)=C2CC2=CC[C@H]3C[C@@H]2C3(C)C)cc1 (some centres unmarked) [Example 310, 3-Benzo[1,3]dioxol-5-yl-4-(6,6-dimethyl-bicyclo[3.1.1]-hept-2-en-2-ylmethyl)-5-hydroxy-5-(4-methoxy-phenyl)-5H-furan-2-one]
640 | 8.4 | COc1ccc(C2(O)OC(=O)C(c3ccc4c(c3)OCO4)=C2CC2CCCC2)cc1 (centres unmarked) [Example 314, 3-Benzo[1,3]dioxol-5-yl-4-cyclopentylmethyl-5-hydroxy-5-(4-methoxy-phenyl)-5H-furan-2-one]
690 | 8.1 | COc1ccc(C2(O)OC(=O)C(c3ccc4c(c3)OCO4)=C2CC2CC=CCC2)cc1 (centres unmarked) [Example 316, 3-Benzo[1,3]dioxol-5-yl-4-cyclohex-3-enylmethyl-5-hydroxy-5-(4-methoxy-phenyl)-5H-furan-2-one]
4000 | 3300 | COc1ccc(C2(O)OC(=O)C(c3ccc4c(c3)OCO4)=C2CCC2CCCCC2)cc1 (centres unmarked) [Example 322, 3-Benzo-[1,3]dioxol-5-yl-4-(2-cyclohexyl-ethyl)-5-hydroxy-5-(4-methoxy-phenyl)-5H-furan-2-one]
> 25000 | 2500 | C=CCOc1ccc(OC)cc1C1=C(Cc2ccccc2)C(O)(c2ccc(OC)cc2)OC1=O (centres unmarked) [Example 337, 3-(2-Allyloxy-5-methoxy-phenyl)-4-benzyl-5-hydroxy-5-(4-methoxy-phenyl)-5H-furan-2-one]
630 | 69 | CCCCCC1=C(c2ccc3c(c2)OCO3)C(=O)OC1(O)c1ccc(OC)cc1 (centres unmarked) [Example 340, 3-Benzo[1,3]dioxol-5-yl-5-hydroxy-5-(4-methoxy-phenyl)-4-pentyl-5H-furan-2-one]
